{
  "source": "paper PMC3414753",
  "about": "“Oleamide activates peroxisome proliferator-activated receptor gamma (PPARγ) in vitro” (2012)",
  "key": {"PPARβ": {"target": "T1, PPARβ (Homo sapiens, UniProt Q03181)", "T1 construct": "gene PPARD", "T1 sequence (Q03181 171-441 limits assumed)": "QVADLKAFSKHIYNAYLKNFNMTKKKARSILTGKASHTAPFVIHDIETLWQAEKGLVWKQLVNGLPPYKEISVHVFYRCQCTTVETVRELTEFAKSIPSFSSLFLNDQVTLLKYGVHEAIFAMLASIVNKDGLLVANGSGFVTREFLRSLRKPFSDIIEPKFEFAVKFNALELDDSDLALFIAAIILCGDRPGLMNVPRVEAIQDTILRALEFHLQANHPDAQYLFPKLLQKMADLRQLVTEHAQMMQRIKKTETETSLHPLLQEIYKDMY", "assay": "LanthaScreen TR-FRET competitive binding assay; displacement incomplete at […]"}, "PPARγ": {"target": "T2, PPARγ (Homo sapiens, UniProt P37231)", "T2 construct": "gene PPARG", "T2 sequence (P37231 232-505 limits assumed)": "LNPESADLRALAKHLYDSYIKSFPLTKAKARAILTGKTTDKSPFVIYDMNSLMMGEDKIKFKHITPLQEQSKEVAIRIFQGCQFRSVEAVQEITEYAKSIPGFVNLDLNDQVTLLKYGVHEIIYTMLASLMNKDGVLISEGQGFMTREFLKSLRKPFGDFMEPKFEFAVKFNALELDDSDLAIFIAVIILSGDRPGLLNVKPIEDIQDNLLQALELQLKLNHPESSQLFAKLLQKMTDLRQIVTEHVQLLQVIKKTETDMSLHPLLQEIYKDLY", "assay": "biochemical", "type": "binding"}, "PPARα": {"target": "T3, PPARα (Homo sapiens, UniProt Q07869)", "T3 construct": "gene PPARA", "T3 sequence (Q07869 196-468 limits assumed)": "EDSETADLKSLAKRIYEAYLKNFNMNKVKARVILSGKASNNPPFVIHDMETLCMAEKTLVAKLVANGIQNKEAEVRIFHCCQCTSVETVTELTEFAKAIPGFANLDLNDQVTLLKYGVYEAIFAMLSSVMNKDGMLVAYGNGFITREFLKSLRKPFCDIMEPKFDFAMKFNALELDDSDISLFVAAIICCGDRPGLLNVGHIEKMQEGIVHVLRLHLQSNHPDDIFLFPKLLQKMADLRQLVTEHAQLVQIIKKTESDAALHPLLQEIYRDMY", "assay": "LanthaScreen TR-FRET competitive binding assay; displacement incomplete at […]"}},
  "data": [
    {"smiles": "CCCCCCCC/C=C\\CCCCCCCC(N)=O", "note": "[ODA, (Z)-octadec-9-enamide]", "values": [
      {"measurement": "LanthaScreen TR-FRET competitive binding assay; displacement incomplete at 100 μ", "setting": "PPARβ", "result": "ODA evoked concentration-dependent displacement of fluorescent ligand from each receptor binding site, displacement at PPARα and PPARβ was incomplete"},
      {"measurement": "IC50", "setting": "PPARγ", "result": "~38", "unit": "µM"},
      {"measurement": "LanthaScreen TR-FRET competitive binding assay; displacement incomplete at 100 μ", "setting": "PPARα", "result": "ODA evoked concentration-dependent displacement of fluorescent ligand from each receptor binding site, displacement at PPARα and PPARβ was incomplete"}
    ]}
  ]
}
